Results as given in patent US6624202B2, “Inhibitors of copper-containing amine oxidases” (priority 2000, dated 2003).
Counter-ions that a name gives are not always drawn. Like-named read-outs stand apart in the source and are kept apart here.

Assays:
[1] = target: T1, Recombinant human VAP-1 SSAO (Homo sapiens, UniProt Q16853); assay: In vitro inhibition of VAP-1 SSAO activity (coupled colourimetric method); assay type: biochemical; details: for IC50: 1 mM benzylamine, 1 h at 37° C.
T1 sequence (Q16853 1-763): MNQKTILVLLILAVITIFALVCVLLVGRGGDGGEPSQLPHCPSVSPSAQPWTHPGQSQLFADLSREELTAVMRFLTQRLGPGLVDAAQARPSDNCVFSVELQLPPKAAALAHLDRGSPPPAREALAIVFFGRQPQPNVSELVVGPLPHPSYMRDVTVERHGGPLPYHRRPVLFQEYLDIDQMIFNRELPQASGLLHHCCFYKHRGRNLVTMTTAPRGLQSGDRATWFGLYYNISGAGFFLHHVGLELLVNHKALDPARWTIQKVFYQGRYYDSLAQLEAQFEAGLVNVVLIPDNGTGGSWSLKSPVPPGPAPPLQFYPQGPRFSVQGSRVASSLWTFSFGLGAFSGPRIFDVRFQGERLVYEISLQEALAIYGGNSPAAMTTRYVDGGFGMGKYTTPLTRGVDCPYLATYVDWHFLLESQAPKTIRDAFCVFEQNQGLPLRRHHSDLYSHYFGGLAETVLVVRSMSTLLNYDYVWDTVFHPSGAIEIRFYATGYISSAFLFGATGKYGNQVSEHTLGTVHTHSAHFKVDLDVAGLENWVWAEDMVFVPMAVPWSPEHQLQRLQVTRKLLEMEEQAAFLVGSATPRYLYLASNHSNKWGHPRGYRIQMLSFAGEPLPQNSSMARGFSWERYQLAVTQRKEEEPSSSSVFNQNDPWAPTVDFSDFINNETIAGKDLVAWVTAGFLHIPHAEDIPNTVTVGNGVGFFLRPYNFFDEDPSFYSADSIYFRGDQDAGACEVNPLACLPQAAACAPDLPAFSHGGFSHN
Description: VAP-1 SSAO activity was measured using the coupled colourimetric method essentially as described for monoamine oxidase and related enzymes (Holt, A., et al., Anal. Biochem. 244:384-392 (1997)). Recombinant human VAP-1 SSAO expressed in Chinese Hamster Ovary (CHO) cells was used as a source of VAP-1 SSAO for activity measurements. […] These cells and their culture have previously been described (Smith, D. J., et al., J. Exp. Med. 188:17-27 (1998)). A cell lysate was prepared by suspending approximately 3.6×10^8 cells in 25 ml lysis buffer (150 mM NaCl, 10 mM Tris-Base pH 7.2, 1.5 mM MgCl2, 1% NP40) and incubating at 4° C. overnight on a rotating table. The lysate was clarified by centrifugation at 18000 g for 5 min at room temperature and the supernatant used directly in the assay. The VAP-1 SSAO assay was performed in 96 well microtitre plates as follows. To each well was added a predetermined amount of inhibitor if required. […] Controls lacked inhibitor. The inhibitor was in a total volume of 20 μl in water. The following reagents were then added. 0.2 M potassium phosphate buffer pH 7.6 to a total reaction volume of 200 μl, 45 μl of freshly made chromogenic solution containing 1 mM 2,4-dichlorophenol, 500 μM 4-aminoantipyrine and 4 U/ml horseradish peroxidase and an amount of CHO cell lysate containing VAP-1 SSAO that caused a change of 0.6 A490 per h. […] The plates were incubated for 30 min at 37° C. and the background absorbance measured at 490 nm using a Wallac Victor II multilabel counter. To initiate the enzyme reaction 20 μl 10 mM benzylamine (final concentration=1 mM) was added and the plate incubated for 1 h at 37° C. The increase in absorbance, reflecting VAP-1 SSAO activity, was measured at 490 nm. Inhibition was presented as percent inhibition compared to control after correcting for background absorbance and IC50 values calculated using GraphPad Prism.

Total rat MAO = Total rat MAO activity (rat liver mitochondrial preparation, colourimetric); assay type: biochemical; details: rat liver mitochondria; 0.5 mM tyramine; 1 h at 37° C.; read-out: Total MAO inhibitory activity IC50
Description: Rat MAO was prepared from rat liver by rinsing the 1 g liver sample several times in 14 ml KCl-EDTA-solution to remove all blood. Then 1 g liver sample was homogenised in 4 ml ice-cold potassium phosphate buffer (0.1 M, pH 7.4) with an Ultra-Turrax homogeniser (setting 11 000 rpm, 4×10 s). After centrifugation at 500 g for 10 min at 4° C. the supernatant was carefully withdrawn and was centrifuged at 12 300 g for 15 min at 4° C. The supernatant was discharged and sedimented mitochondria were resuspended in 4 ml fresh phosphate buffer and centrifuged as previously. The mitochondria were suspended in 4 ml phosphate buffer and homogenized with an Ultra-Turrax homogeniser (setting 11 000 rpm, 2×10 s). Mitochondrial preparate was aliquoted and stored at −70° C. Total MAO activity was measured in a similar way as for VAP-1 SSAO except that 2,4-dichlorophenol was replaced by 1 mM vanillic acid. To each well was added a predetermined amount of inhibitor if required. The amount of inhibitor varied in each assay but was generally at a final concentration of between 10 nM and 800 μM. Controls lacked inhibitor. The inhibitor was in a total volume of 20 μl in water. The following reagents were then added. 0.2 M potassium phosphate buffer pH 7.6 for a total reaction volume of 300 μl, 50 μl of fleshly made chromogenic solution (as above) and 50 μl of MAO preparation. The plates were incubated for 30 min at 37° C. and the background absorbance measured at 490 nm using a Wallac Victor II multilabel counter. To initiate the enzyme reaction 20 μl of 5 mM tyramine (final concentration 0.5 mM) was added and the plate incubated for 1 h at 37° C. The increase in absorbance, reflecting MAO activity, was measured at […]. Inhibition was presented as percent inhibition compared to control after correcting for background absorbance and IC50 values calculated using GraphPad Prism. Clorgyline and pargyline (inhibitors of MAO-A and -B respectively) at 0.5 μM were added to some wells as positive controls for MAO inhibition.

[2] = lysate of CHO cells expressing recombinant human VAP-1 SSAO, read-out: VAP-1 SSAO inhibitory activity IC50
[3] = ratio of total rat MAO IC50 to human VAP-1 SSAO IC50
[4] = VAP-1 SSAO inhibitory activity IC50, lysate of CHO cells expressing recombinant human VAP-1 SSAO

For “2-(1-methylhydrazino)-1-phenylethanol hydrogenmaleate [Compound 6]”, the IC50 [1, 2] was 65 nM, the “Selectivity for VAP-1 SSAO over MAO” value [1, 3] was 137 and the IC50 (Total rat MAO) was 8900 nM.

`C[C@@H]([C@H](O)c1ccccc1)N(C)N` (racemic) [Compound 10] was tested, and the IC50 [1, 4] was 300 nM, the “Selectivity for VAP-1 SSAO over MAO” value [1, 3] was 120 and the IC50 (Total rat MAO) was 36000 nM.

With `CC(C(O)c1ccccc1)N(C)N` (racemic) [Compound 11] the IC50 [1, 4] was 170 nM, the “Selectivity for VAP-1 SSAO over MAO” value [1, 3] was 94 and the IC50 (Total rat MAO) was 16000 nM.

For `C[C@@H]([C@H](O)c1ccccc1)N(C)N` (racemic) [Compound 12], the IC50 [1, 4] was 290 nM and the “Selectivity for VAP-1 SSAO over MAO” value [1, 3] was 138.

`CCN(N)[C@@H](C)[C@H](O)c1ccccc1` (racemic) [Compound 13] was tested, and the IC50 [1, 2] was 1520 nM and the “Selectivity for VAP-1 SSAO over MAO” value [1, 3] was 16.

`CCCN(N)C(C)C(O)c1ccccc1` (racemic) [Compound 14] was tested, and the IC50 [1, 2] was 129000 nM and the “Selectivity for VAP-1 SSAO over MAO” value [1, 3] was over 6.

With `C[C@@H]([C@H](O)c1ccccc1)N(N)CC1CC1` (racemic) [Compound 15] the IC50 [1, 2] was 1380 nM and the “Selectivity for VAP-1 SSAO over MAO” value [1, 3] was 7.

`CC(C(O)c1ccccc1)N(N)Cc1ccccc1` (racemic) [Compound 16] was tested, and the IC50 [1, 2] was 4000 nM and the “Selectivity for VAP-1 SSAO over MAO” value [1, 3] was 62.

In the case of `C[C@@H]([C@H](O)c1ccccc1)N(N)Cc1ccccc1` (racemic) [Compound 17], the IC50 [1, 2] is reported as 34000 nM and the “Selectivity for VAP-1 SSAO over MAO” value [1, 3] is reported as 6.

For `COc1ccc(CN(N)C(C)C(O)c2ccccc2)cc1` (racemic) [Compound 18], the IC50 [1, 2] was 2600 nM and the “Selectivity for VAP-1 SSAO over MAO” value [1, 3] was 9.

In the case of `CN(N)C(C)(C)C(O)c1ccccc1` (racemic) [Compound 20], the IC50 [1, 2] is reported as 520 nM and the “Selectivity for VAP-1 SSAO over MAO” value [1, 3] is reported as 98.

In the case of `CC[C@@H]([C@H](O)c1ccccc1)N(C)N` (racemic) [Compound 21], the IC50 [1, 2] is reported as 260 nM and the “Selectivity for VAP-1 SSAO over MAO” value [1, 3] is reported as 158.

With `CCC[C@@H](NN)[C@@H](O)c1ccccc1` (racemic) [Compound 22] the IC50 [1, 2] was 1200 nM and the “Selectivity for VAP-1 SSAO over MAO” value [1, 3] was 9.

For `CCC[C@@H]([C@H](O)c1ccccc1)N(C)N` (racemic) [Compound 23], the IC50 [1, 2] was 260 nM and the “Selectivity for VAP-1 SSAO over MAO” value [1, 3] was 108.

`CC(C)CN(N)CC(O)c1ccccc1` (racemic) [Compound 24] was tested, and the IC50 [1, 2] was 350 nM and the “Selectivity for VAP-1 SSAO over MAO” value [1, 3] was 32.

With `CN(N)CC(O)c1ccccc1Cl` (racemic) [Compound 29] the IC50 [1, 2] was 270 nM and the “Selectivity for VAP-1 SSAO over MAO” value [1, 3] was 85.

With `CN(N)CC(O)c1ccc(Cl)cc1` (racemic) [Compound 30] the “Selectivity for VAP-1 SSAO over MAO” value [1] was 68, the IC50 [1, 2] was 310 nM and the IC50 (Total rat MAO) was 21000 nM.

For `COc1cccc(C(O)CNN)c1` (racemic) [Compound 33], the IC50 [1, 2] was 52 nM, the “Selectivity for VAP-1 SSAO over MAO” value [1, 3] was 175 and the IC50 (Total rat MAO) was 9100 nM.

With `COc1cccc(C(O)CN(C)N)c1` (racemic) [Compound 34] the “Selectivity for VAP-1 SSAO over MAO” value [1] was 157, the IC50 [1, 2] was 280 nM and the IC50 (Total rat MAO) was 44000 nM.

For `COc1ccc(C(O)CNN)cc1` (racemic) [Compound 35], the IC50 [1, 2] was 29 nM and the “Selectivity for VAP-1 SSAO over MAO” value [1, 3] was 207.

In the case of `COc1ccc(C(O)CNN)cc1` (racemic) [Compound 36], the IC50 [1, 2] is reported as 17 nM and the “Selectivity for VAP-1 SSAO over MAO” value [1, 3] is reported as 294.

In the case of `COc1ccc(C(CN(C)N)OC)cc1` (racemic) [Compound 37], the IC50 [1, 2] is reported as 420 nM and the “Selectivity for VAP-1 SSAO over MAO” value [1, 3] is reported as 105.

In the case of `NN(Cc1ccccc1)C(CO)Cc1ccccc1` (racemic) [Compound 38], the IC50 [1, 2] is reported as over 50000 nM and the “Selectivity for VAP-1 SSAO over MAO” value [1, 3] is reported as “≈10”.

`NN(Cc1ccccc1)C1CCCCC1O` (racemic) [Compound 41] was tested, and the IC50 [1, 2] was 21900 nM and the “Selectivity for VAP-1 SSAO over MAO” value [1, 3] was 5.

With `NN(Cc1ccccc1)[C@@H]1CCCC[C@H]1O` (racemic) [Compound 42] the IC50 [1, 2] was 3700 nM, the “Selectivity for VAP-1 SSAO over MAO” value [1, 3] was 29 and the IC50 (Total rat MAO) was 106000 nM.

`CN(N)[C@@H]1CCCC[C@]1(O)c1ccccc1` (racemic) [Compound 43] was tested, and the IC50 [1, 2] was 520 nM and the “Selectivity for VAP-1 SSAO over MAO” value [1, 3] was 19.

`COc1cc2c(cc1OC)C(CCO)N(N)CC2` (racemic) [Compound 45] was tested, and the IC50 [1, 2] was 8100 nM and the “Selectivity for VAP-1 SSAO over MAO” value [1, 3] was 6.

`NN1Cc2ccccc2CC1CO` (racemic) [Compound 46] was tested, and the IC50 [1, 2] was over 10000 nM and the “Selectivity for VAP-1 SSAO over MAO” value [1, 3] was under 61.

With `COc1cc2c(cc1OC)CN(N)C(CO)C2` (racemic) [Compound 47] the IC50 [1, 2] was over 10000 nM and the “Selectivity for VAP-1 SSAO over MAO” value [1, 3] was under 150.

In the case of `C[C@@H]([C@H](O)c1ccccc1)N(C)N` (relative stereo) [Compound 2, (1R*,2S*)-2-(1-Methylhydrazino)-1-phenyl-1-propanol hydrochloride], the IC50 [1, 4] is reported as 350 nM and the “Selectivity for VAP-1 SSAO over MAO” value [1, 3] is reported as 111.

For `C[C@H]([C@@H](O)c1ccccc1)[N+](C)(C)N` (relative stereo) [Compound 4, (1R*,2S*)-1-(2-hydroxy-1-methyl-2-phenylethyl)-1,1-dimethylhydrazinium iodide], the IC50 [1, 2] was over 50000 nM and the “Selectivity for VAP-1 SSAO over MAO” value [1, 3] was “≈10”.

`CN(N)[C@H](c1ccccc1)C(O)c1ccccc1` (stereo in doubt) [Compound 5, (1R*,2S*)-2-(1-methylhydrazino)-1,2-diphenylethanol hydrogemnaleate] was tested, and the IC50 [1, 2] was 410 nM and the “Selectivity for VAP-1 SSAO over MAO” value [1, 3] was 132.

With `C[C@@H]([C@H](O)c1ccccc1)N(C)N` [Compound 1, (1R,2S)-2-(1-Methylhydrazino)-1-phenyl-1-propanol hydrogenmaleate] the IC50 [1, 4] was 220 nM and the “Selectivity for VAP-1 SSAO over MAO” value [1, 3] was 141.

For `COc1cccc(C(CN(C)N)OC)c1` (stereo not shown) [Compound 7, 1-[2-methoxy-2-(m-methoxyphenyl)ethyl]-1-methylhydrazine Hydrogenfumarate], the IC50 [1, 2] was 410 nM and the “Selectivity for VAP-1 SSAO over MAO” value [1, 3] was 107.

`COc1cc2c(cc1OC)C(CO)N(N)CC2` (stereo not shown) [Compound 8, 2-Amino-6,7-dimethoxy-1,2,3,4-tetrahydroisoquinoline-1-methanol hydrochloride] was tested, and the IC50 [1, 2] was over 10000 nM and the “Selectivity for VAP-1 SSAO over MAO” value [1, 3] was under 8.

`COc1ccc(C(O)CN(C)N)cc1` (stereo not shown) [Compound 9, 2-(1-methylhydrazino)-1-(p-methoxyphenyl)ethanol hydrogenfumarate] was tested, and the IC50 [1, 2] was 310 nM and the “Selectivity for VAP-1 SSAO over MAO” value [1, 3] was 116.
